Converted amounts (≈) assume the structure as drawn.
Tests used:
Type in all cases: functional
Enterococcus faecium [1] = assay: Tested in vitro for minimum inhibitory concentration to produce antibacterial activity against Enterococcus faecium ATCC 8043
Enterococcus faecium [2] = assay: Tested in vitro for minimum inhibitory concentration to produce antibacterial activity against Enterococcus faecium ATCC 8043 in presence of erythromycin A
Escherichia coli [3] = assay: Tested in vitro for minimum inhibitory concentration to produce antibacterial activity against Escherichia coli JUHL
Escherichia coli [4] = assay: Tested in vitro for minimum inhibitory concentration to produce antibacterial activity against Escherichia coli JUHL in presence of erythromycin A
Escherichia coli [5] = assay: Tested in vitro for minimum inhibitory concentration to produce antibacterial activity against Escherichia coli SS
Escherichia coli [6] = assay: Tested in vitro for minimum inhibitory concentration to produce antibacterial activity against Escherichia coli SS in presence of erythromycin A
[7] = system: Staphylococcus epidermidis; assay: Tested in vitro for minimum inhibitory concentration to produce antibacterial activity against Staphylococcus epidermidis 3519
[8] = system: Staphylococcus epidermidis; assay: Tested in vitro for minimum inhibitory concentration to produce antibacterial activity against Staphylococcus epidermidis 3519 in presence of erythromycin A
Streptococcus pyogenes [9] = assay: Tested in vitro for minimum inhibitory concentration to produce antibacterial activity against Streptococcus pyogenes 930
Streptococcus pyogenes [10] = assay: Tested in vitro for minimum inhibitory concentration to produce antibacterial activity against Streptococcus pyogenes 930 in presence of erythromycin A
Streptococcus pyogenes [11] = assay: Tested in vitro for minimum inhibitory concentration to produce antibacterial activity against Streptococcus pyogenes EES61
Streptococcus pyogenes [12] = assay: Tested in vitro for minimum inhibitory concentration to produce antibacterial activity against Streptococcus pyogenes EES61 in presence of erythromycin A
Streptococcus pyogenes [13] = assay: Tested in vitro for minimum inhibitory concentration to produce antibacterial activity against Streptococcus pyogenes PIU 2548
Streptococcus pyogenes [14] = assay: Tested in vitro for minimum inhibitory concentration to produce antibacterial activity against Streptococcus pyogenes PIU 2548 in presence of erythromycin A
Streptococcus agalactiae [15] = assay: Tested in vitro for minimum inhibitory concentration to produce antibacterial activity against Streptococcus agalactiae CMX 508
Streptococcus agalactiae [16] = assay: Tested in vitro for minimum inhibitory concentration to produce antibacterial activity against Streptococcus agalactiae CMX 508 in presence of erythromycin A
Staphylococcus aureus [17] = assay: Tested in vitro for minimum inhibitory concentration to produce antibacterial activity against Staphylococcus aureus 1775
Staphylococcus aureus [18] = assay: Tested in vitro for minimum inhibitory concentration to produce antibacterial activity against Staphylococcus aureus 1775 in presence of erythromycin A
Staphylococcus aureus [19] = assay: Tested in vitro for minimum inhibitory concentration to produce antibacterial activity against Staphylococcus aureus A-5278
Staphylococcus aureus [20] = assay: Tested in vitro for minimum inhibitory concentration to produce antibacterial activity against Staphylococcus aureus A-5278 in presence of erythromycin A
Staphylococcus aureus [21] = assay: Tested in vitro for minimum inhibitory concentration to produce antibacterial activity against Staphylococcus aureus A5177
Staphylococcus aureus [22] = assay: Tested in vitro for minimum inhibitory concentration to produce antibacterial activity against Staphylococcus aureus A5177 in presence of erythromycin A
Staphylococcus aureus [23] = assay: Tested in vitro for minimum inhibitory concentration to produce antibacterial activity against Staphylococcus aureus ATCC 6538P
Staphylococcus aureus [24] = assay: Tested in vitro for minimum inhibitory concentration to produce antibacterial activity against Staphylococcus aureus ATCC 6538P in presence of erythromycin A
Staphylococcus aureus [25] = assay: Tested in vitro for minimum inhibitory concentration to produce antibacterial activity against Staphylococcus aureus CMX 553
Staphylococcus aureus [26] = assay: Tested in vitro for minimum inhibitory concentration to produce antibacterial activity against Staphylococcus aureus CMX 553 in presence of erythromycin A
Staphylococcus aureus [27] = assay: Tested in vitro for minimum inhibitory concentration to produce antibacterial activity against Staphylococcus aureus CMX 642A
Staphylococcus aureus [28] = assay: Tested in vitro for minimum inhibitory concentration to produce antibacterial activity against Staphylococcus aureus CMX 642A in presence of erythromycin A
Streptococcus equinus [29] = assay: Tested in vitro for minimum inhibitory concentration to produce antibacterial activity against Streptococcus bovis A-5169
Streptococcus equinus [30] = assay: Tested in vitro for minimum inhibitory concentration to produce antibacterial activity against Streptococcus bovis A-5169 in presence of erythromycin A
Staphylococcus aureus [31] = assay: Tested in vitro for minimum inhibitory concentration to produce antibacterial activity against Staphylococcus aureus NCTC-10649M
Staphylococcus aureus [32] = assay: Tested in vitro for minimum inhibitory concentration to produce antibacterial activity against Staphylococcus aureus NCTC-10649M in presence of erythromycin A

Row | MIC (Enterococcus faecium [1]) [µg/mL] | MIC (Enterococcus faecium [2]) [µg/mL] | MIC (Escherichia coli [3]) [µg/mL] | MIC (Escherichia coli [4]) [µg/mL] | MIC (Escherichia coli [5]) [µg/mL] | MIC (Escherichia coli [6]) [µg/mL] | MIC [7] [µg/mL] | MIC [8] [µg/mL] | MIC (Streptococcus pyogenes [9]) [µg/mL] | MIC (Streptococcus pyogenes [10]) [µg/mL] | MIC (Streptococcus pyogenes [11]) [µg/mL] | MIC (Streptococcus pyogenes [12]) [µg/mL] | MIC (Streptococcus pyogenes [13]) [µg/mL] | MIC (Streptococcus pyogenes [14]) [µg/mL] | MIC (Streptococcus agalactiae [15]) [µg/mL] | MIC (Streptococcus agalactiae [16]) [µg/mL] | MIC (Staphylococcus aureus [17]) [µg/mL] | MIC (Staphylococcus aureus [18]) [µg/mL] | MIC (Staphylococcus aureus [19]) [µg/mL] | MIC (Staphylococcus aureus [20]) [µg/mL] | Compound | other results
1 | 0.78 (≈ 1.3 µM) | 0.05 | > 100 | 50 | 0.78 (≈ 1.3 µM) | 0.2 | 6.2 (≈ 10.3 µM) | 0.2 | > 100 | > 100 | 0.2 (≈ 0.333 µM) | 0.01 | 0.78 (≈ 1.3 µM) | 6.2 | 0.2 (≈ 0.333 µM) | 0.01 | > 100 | > 100 | > 100 | > 100 | CC[C@H]1OC(=O)[C@H](C)C[C@H](C)[C@@H](O[C@@H]2O[C@H](C)C[C@H](N(C)C)[C@H]2O)[C@](C)(OC)C[C@@H](C)C(=O)[C@H](C)[C@H]2OC(=O)O[C@@]21C | MIC (Staphylococcus aureus [21]): 3.1 µg/mL (≈ 5.17 µM); MIC (Staphylococcus aureus [22]): 3.1 µg/mL; MIC (Staphylococcus aureus [23]): 6.2 µg/mL (≈ 10.3 µM); MIC (Staphylococcus aureus [24]): 0.2 µg/mL; MIC (Staphylococcus aureus [25]): 3.1 µg/mL (≈ 5.17 µM); MIC (Staphylococcus aureus [26]): 0.2 µg/mL; MIC (Staphylococcus aureus [27]): 3.1 µg/mL (≈ 5.17 µM); MIC (Staphylococcus aureus [28]): 0.2 µg/mL; MIC (Streptococcus equinus [29]): 0.2 µg/mL (≈ 0.333 µM); MIC (Streptococcus equinus [30]): 0.05 µg/mL; MIC (Staphylococcus aureus [31]): 6.2 µg/mL (≈ 10.3 µM); MIC (Staphylococcus aureus [32]): 0.2 µg/mL
2 | > 100 | 0.2 | > 100 | 50 | > 100 | 0.78 | > 100 | 0.39 | > 100 | 12.5 | 12.5 (≈ 22.5 µM) | 0.01 | > 100 | 12.5 | 25 (≈ 45 µM) | 0.02 | > 100 | > 100 | > 100 | > 100 | CC[C@H]1OC(=O)[C@H](C)C[C@H](C)[C@@H](O[C@@H]2O[C@H](C)C[C@H](N(C)C)[C@H]2O)[C@](C)(OC)C[C@@H](C)C(=O)/C(C)=C/[C@]1(C)O | MIC (Staphylococcus aureus [21]): > 100 µg/mL; MIC (Staphylococcus aureus [22]): 3.1 µg/mL; MIC (Staphylococcus aureus [23]): > 100 µg/mL; MIC (Staphylococcus aureus [24]): 0.39 µg/mL; MIC (Staphylococcus aureus [25]): > 100 µg/mL; MIC (Staphylococcus aureus [26]): 0.39 µg/mL; MIC (Staphylococcus aureus [27]): > 100 µg/mL; MIC (Staphylococcus aureus [28]): 0.39 µg/mL; MIC (Streptococcus equinus [29]): > 100 µg/mL; MIC (Streptococcus equinus [30]): 0.2 µg/mL; MIC (Staphylococcus aureus [31]): > 100 µg/mL; MIC (Staphylococcus aureus [32]): 0.39 µg/mL
3 | 25 (≈ 43.6 µM) | 0.05 | > 100 | 50 | 0.78 (≈ 1.36 µM) | 0.1 | 50 (≈ 87.1 µM) | 0.1 | > 100 | > 100 | 1.56 (≈ 2.72 µM) | 0.02 | 3.1 (≈ 5.4 µM) | 6.2 | 3.1 (≈ 5.4 µM) | 0.02 | > 100 | > 100 | > 100 | > 100 | CC[C@H]1OC(=O)[C@H](C)C[C@H](C)[C@@H](O[C@@H]2O[C@H](C)C[C@H](N(C)C)[C@H]2O)[C@](C)(OC)C[C@@H](C)C(=O)[C@H](C)[C@@H](O)[C@]1(C)O | MIC (Staphylococcus aureus [21]): 25 µg/mL (≈ 43.6 µM); MIC (Staphylococcus aureus [22]): 1.56 µg/mL; MIC (Staphylococcus aureus [23]): 25 µg/mL (≈ 43.6 µM); MIC (Staphylococcus aureus [24]): 0.1 µg/mL; MIC (Staphylococcus aureus [25]): 25 µg/mL (≈ 43.6 µM); MIC (Staphylococcus aureus [26]): 0.2 µg/mL; MIC (Staphylococcus aureus [27]): 25 µg/mL (≈ 43.6 µM); MIC (Staphylococcus aureus [28]): 0.2 µg/mL; MIC (Streptococcus equinus [29]): 0.78 µg/mL (≈ 1.36 µM); MIC (Streptococcus equinus [30]): 0.02 µg/mL; MIC (Staphylococcus aureus [31]): 6.2 µg/mL (≈ 10.8 µM); MIC (Staphylococcus aureus [32]): 0.2 µg/mL

Row | Compound | MIC (Enterococcus faecium [1]) [µg/mL] | MIC (Enterococcus faecium [2]) [µg/mL] | MIC (Escherichia coli [3]) [µg/mL] | MIC (Escherichia coli [4]) [µg/mL] | MIC (Escherichia coli [5]) [µg/mL] | MIC (Escherichia coli [6]) [µg/mL] | MIC [7] [µg/mL] | MIC [8] [µg/mL] | MIC (Streptococcus pyogenes [9]) [µg/mL] | MIC (Streptococcus pyogenes [10]) [µg/mL] | MIC (Streptococcus pyogenes [11]) [µg/mL] | MIC (Streptococcus pyogenes [12]) [µg/mL] | MIC (Streptococcus pyogenes [13]) [µg/mL] | MIC (Streptococcus pyogenes [14]) [µg/mL] | MIC (Streptococcus agalactiae [15]) [µg/mL] | MIC (Streptococcus agalactiae [16]) [µg/mL] | MIC (Staphylococcus aureus [17]) [µg/mL] | MIC (Staphylococcus aureus [18]) [µg/mL] | MIC (Staphylococcus aureus [19]) [µg/mL] | MIC (Staphylococcus aureus [20]) [µg/mL] | other results
4 | CC[C@H]1OC(=O)[C@H](C)[C@@H](O[C@H]2C[C@@](C)(OC)[C@@H](O)[C@H](C)O2)[C@H](C)[C@@H](O[C@@H]2O[C@H](C)C[C@H](N(C)C)[C@H]2O)[C@](C)(OC)C[C@@H](C)C(=O)[C@H](C)[C@@H](O)[C@]1(C)O [CLARITHROMYCIN] | 0.05 (≈ 0.0668 µM) | 0.05 | 100 (≈ 134 µM) | 50 | 0.39 (≈ 0.521 µM) | 0.39 | 0.12 (≈ 0.16 µM) | 0.03 | > 100 | > 100 | 0.01 (≈ 0.0134 µM) | 0.01 | 8 (≈ 10.7 µM) | 8 | 0.02 (≈ 0.0267 µM) | 0.02 | > 100 | > 100 | > 100 | > 100 | MIC (Staphylococcus aureus [21]): 1.56 µg/mL (≈ 2.09 µM); MIC (Staphylococcus aureus [22]): 3.1 µg/mL; MIC (Staphylococcus aureus [23]): 0.2 µg/mL (≈ 0.267 µM); MIC (Staphylococcus aureus [24]): 0.2 µg/mL; MIC (Staphylococcus aureus [25]): 0.12 µg/mL (≈ 0.16 µM); MIC (Staphylococcus aureus [26]): 0.12 µg/mL; MIC (Staphylococcus aureus [27]): 0.03 µg/mL (≈ 0.0401 µM); MIC (Staphylococcus aureus [28]): 0.03 µg/mL; MIC (Streptococcus equinus [29]): 0.01 µg/mL (≈ 0.0134 µM); MIC (Streptococcus equinus [30]): 0.01 µg/mL; MIC (Staphylococcus aureus [31]): 0.03 µg/mL (≈ 0.0401 µM); MIC (Staphylococcus aureus [32]): 0.03 µg/mL

Source: ChEMBL document CHEMBL1152085, “Novel 3-deoxy-3-descladinosyl-6-O-methyl erythromycin a analogues. Synthesis and in vitro activity” (1997)
